Experimental data: BindingDB's records for doi:10.1016/j.bmcl.2012.08.044 (Lundbeck Research Usa, 2012)

How the values were obtained:
Cytochrome P450 3A4 = Cytochrome P450 3A4 (Homo sapiens, UniProt P08684); assay: Inhibition of CYP3A4
Cytochrome P450 2D6 = Cytochrome P450 2D6 (Homo sapiens, UniProt P10635); assay: Inhibition of CYP2D6
Sequence of Cytochrome P450 2D6 (P10635 whole entry): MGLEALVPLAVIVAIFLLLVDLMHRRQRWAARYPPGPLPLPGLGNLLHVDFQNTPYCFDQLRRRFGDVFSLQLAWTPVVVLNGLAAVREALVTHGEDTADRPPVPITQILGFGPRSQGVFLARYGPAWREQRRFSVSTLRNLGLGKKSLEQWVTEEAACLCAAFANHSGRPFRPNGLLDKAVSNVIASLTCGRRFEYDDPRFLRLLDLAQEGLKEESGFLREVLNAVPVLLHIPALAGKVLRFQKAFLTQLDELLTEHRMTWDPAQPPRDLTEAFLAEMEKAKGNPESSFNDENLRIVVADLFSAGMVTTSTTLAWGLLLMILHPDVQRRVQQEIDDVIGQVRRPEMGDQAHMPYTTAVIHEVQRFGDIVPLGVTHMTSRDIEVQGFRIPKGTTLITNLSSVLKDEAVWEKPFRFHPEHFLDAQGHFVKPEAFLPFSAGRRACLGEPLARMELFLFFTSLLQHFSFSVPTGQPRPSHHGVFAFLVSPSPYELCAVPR

Sequence of Cytochrome P450 3A4 (P08684 whole entry): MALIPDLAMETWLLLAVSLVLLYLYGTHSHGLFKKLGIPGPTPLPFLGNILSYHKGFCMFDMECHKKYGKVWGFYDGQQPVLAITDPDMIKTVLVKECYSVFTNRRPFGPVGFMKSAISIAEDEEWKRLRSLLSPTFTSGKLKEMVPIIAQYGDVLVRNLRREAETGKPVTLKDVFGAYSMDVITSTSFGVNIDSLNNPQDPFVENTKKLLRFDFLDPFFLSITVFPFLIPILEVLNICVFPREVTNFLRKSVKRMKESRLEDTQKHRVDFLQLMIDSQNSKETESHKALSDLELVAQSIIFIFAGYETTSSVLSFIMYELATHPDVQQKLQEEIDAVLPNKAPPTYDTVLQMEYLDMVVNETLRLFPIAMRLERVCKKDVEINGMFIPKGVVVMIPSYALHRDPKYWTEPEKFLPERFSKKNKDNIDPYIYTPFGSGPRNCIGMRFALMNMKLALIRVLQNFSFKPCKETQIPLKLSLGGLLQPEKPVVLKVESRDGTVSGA

SMILES | IC50 (Cytochrome P450 3A4) [µM] | IC50 (Cytochrome P450 2D6) [µM]
O=C(C1CCC(F)(F)CC1)N1CC(c2nc(-c3cccc(Cl)c3)no2)C1 | 25 | 33
CC1CCCCC1C(=O)N1CC(c2nc(-c3cccc(F)c3)no2)C1 (centres undefined) | 25 | 40
